Test results published in patent publication US20260216347A1, “Substituted Imidazo-Based Compounds as Ligand Directed Degraders of IRAK3” (Celgene Corporation, priority 2022, published 2026).

Target: T1, IRAK3-ePL (Homo sapiens, UniProt Q9Y616)
T1 construct: expressed in transfected cells; host or cells: 293T CRBN OE/GSPT1 G575N KI cells, lentiviral transduction, puromycin selected
Assay: IRAK3-ePL overexpressing degradation assay (InCELL Hunter luminescence, dose response)
Type: cell-based
Details: for IRAK3 ePL degradation Ymin: lowest percentage of target protein remaining following compound treatment; for DC50: read-out: IRAK3 ePL degradation EC50
Summary of the method: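 Lenti-X 293T CRBN/GSPT1 G575N cells stably expressing IRAK3-ePL (5,000/well) treated overnight at 37° C with 10-point 3-fold dilutions from 10 μM, 0.2% DMSO. InCELL Hunter luminescence, background subtracted using Ataluren wells and normalized to DMSO; EC50 from four-parameter logistic fit.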

| SMILES | IRAK3 ePL degradation Ymin [%] | DC50 [nM] |
| --- | --- | --- |
| Cc1cc(-c2cnc(Nc3cnn(C4CCN(CCN5CCN(c6ccc(C7CCC(=O)NC7=O)cc6)CC5)CC4)c3)c3nccn23)ccc1F (stereo not drawn) [Compound 33, 3-(4-(4-(2-(4-(4-((5-(4-fluoro-3-methylphenyl)imdazo [1,2-a]pyrazin-8-yl)amino)-1H-pyrazol-1-yl)piperidin-1-yl)ethyl)piperazin-1-yl)phenyl) piperidine-2,6-dione] | 24 | 7.9 |
| Cc1cc(-c2cnc(Nc3cnn(C4CCN(CCN5CCN(c6ccc(C7CCC(=O)NC7=O)cc6)C[C@@H]5C)CC4)c3)c3nccn23)c(F)cc1F (stereo partly drawn) [Compound 7, 3-(4-((S)-4-(2-(4-(4-((5-(2,4-difluoro-5-methylphenyl)imdazo [1,2-a]pyrazin-8-yl)amino)-1H-pyrazol-1-yl)piperidin-1-yl)ethyl)-3-methylpiperazin-1-yl)phenyl) piperidine-2,6-dione] | 14 | 0.6 |
| Cc1cc(-c2cnc(Nc3cnn(C4CCN(CCN5CCN(c6ccc(C7CCC(=O)NC7=O)cc6)CC5)CC4)c3)c3nccn23)c(F)cc1F (stereo not drawn) [Compound 8, 3-(4-(4-(2-(4-(4-((5-(2,4-difluoro-5-methylphenyl)imidazo[1,2-a]pyrazin-8-yl)amino)-1H-pyrazol-1-yl)piperidin-1-yl)ethyl)piperazin-1-yl)phenyl)piperidine-2,6-dione] | 18 | 0.5 |
| Cc1cc(-c2cnc(Nc3cnn(C4CCN(CC(=O)N5CCN(c6ccc(C7CCC(=O)NC7=O)cc6)CC5)CC4)c3)c3nccn23)c(F)cc1F (stereo not drawn) [Compound 17, 3-(4-(4-(2-(4-(4-((5-(2,4-difluoro-5-methylphenyl)imidazo[1,2-a]pyrazin-8-yl)amino)-1H-pyrazol-1-yl)piperidin-1-yl)acetyl)piperazin-1-yl)phenyl)piperidine-2,6-dione] | 14 | 0.51 |
| Cc1cc(-c2cnc(Nc3cnn([C@H]4CCN(CCN5CCN(c6ccc(C7CCC(=O)NC7=O)cc6)CC5)C[C@@H]4F)c3)c3nccn23)c(F)cc1F (stereo partly drawn) [Compound 72, 3-(4-(4-(2-((3S,4S)-4-(4-((5-(2,4-difluoro-5-methylphenyl)imdazo [1,2-a]pyrazin-8-yl)amino)-1H-pyrazol-1-yl)-3-fluoropiperidin-1-yl)ethyl)piperazin-1-yl)phenyl) piperidine-2,6-dione] | 24 | 0.51 |
| O=C1CCC(c2ccc(N3CCN(CCN4CCC(n5cc(Nc6ncc(-c7ccccc7F)n7ccnc67)cn5)CC4)CC3)cc2)C(=O)N1 (stereo not drawn) [Compound 75, 3-(4-(4-(2-(4-(4-((5-(2-fluorophenyl)imidazo [1,2-a]pyrazin-8-yl)amino)-1H-pyrazol-1-yl)piperidin-1-yl)ethyl)piperazin-1-yl)phenyl) piperidine-2,6-dione] | 25 | 4.1 |

Further compounds by falling DC50, results first:

| IRAK3 ePL degradation Ymin [%] | DC50 [nM] | SMILES |
| --- | --- | --- |
| 17 | 22 | Cc1cc(-c2cnc(Nc3cnn(C4CCN(CC(=O)N5CCN(c6ccc7c(c6)C(=O)N(C6CCC(=O)NC6=O)C7=O)CC5)CC4)c3)c3nccn23)c(F)cc1F (stereo not drawn) [Compound 6, 5-(4-(2-(4-(4-((5-(2,4-difluoro-5-methylphenyl)imidazo[1,2-a]pyrazin-8-yl)amino)-1H-pyrazol-1-yl)piperidin-1-yl)acetyl)piperazin-1-yl)-2-(2,6-dioxopiperidin-3-yl)isoindoline-1,3-dione] |
| 33 | 21 | Cc1cccc(-c2cnc(Nc3cnn(C4CCN(CC(=O)N5CCN(c6ccc7c(c6)C(=O)N(C6CCC(=O)NC6=O)C7)CC5)CC4)c3)c3nccn23)c1 (stereo not drawn) [Compound 16, 3-(1-oxo-6-(4-(2-(4-(4-((5-(m-tolyl)imidazo[1,2-a]pyrazin-8-yl)amino)-1H-pyrazol-1-yl)piperidin-1-yl)acetyl)piperazin-1-yl)isoindolin-2-yl)piperidine-2,6-dione] |
| 27 | 1.1 | Cc1cc(-c2cnc(Nc3cnn(C4CCN(CCN5CCN(c6ccc([C@@]7(C)CCC(=O)NC7=O)cc6)CC5)CC4)c3)c3nccn23)c(F)cc1F [Compound 77, (R)-3-(4-(4-(2-(4-(4-((5-(2,4-difluoro-5-methylphenyl)imdazo [1,2-a]pyrazin-8-yl)amino)-1H-pyrazol-1-yl)piperidin-1-yl)ethyl)piperazin-1-yl)phenyl)-3-methylpiperidine-2,6-dione] |
